Laboratory results taken from US12606541B2, “PPARg modulators and methods of use” (Eisai R&D Management Co., Ltd., priority 2020, dated 2026).
pIC50: −log10 of the molar value.

How the values were obtained:
[1] = target: T1, His6-TEV-PPARγ-(234-505) (Homo sapiens, UniProt P37231); experiment: TR-FRET Assay to Measure Co-R Peptide Recruitment to PPARγ; assay type: biochemical; details: Co-R peptide (SMRT-ID2) recruitment; top final concentration 20 μM; read-out: TR-FRET i-Ag; AC50
T1 construct: The His6-TEV-PPARγ-(234-505) protein for assay was expressed and purified; TEV cleavage site (N); made in house
T1 sequence (P37231 234-505): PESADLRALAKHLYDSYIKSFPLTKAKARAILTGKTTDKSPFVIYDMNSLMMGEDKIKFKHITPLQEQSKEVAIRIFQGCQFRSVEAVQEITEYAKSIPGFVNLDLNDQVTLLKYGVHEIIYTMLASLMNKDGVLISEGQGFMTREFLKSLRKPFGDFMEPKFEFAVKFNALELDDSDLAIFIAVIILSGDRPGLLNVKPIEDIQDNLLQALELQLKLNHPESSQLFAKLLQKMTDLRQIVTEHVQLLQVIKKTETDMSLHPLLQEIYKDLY
Outline: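 Corepressor recruitment is measured by adding terbium-labeled anti-His antibody and FITC SMRT-ID2 peptide, at 5 and 200 nM final, after a 20-minute room-temperature protein–compound incubation. After one further hour, signal is converted to percent response between DMSO and 500 nM T0070907 wells.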

[2] = test system: UM-UC-9 engineered cells; experiment: Cell proliferation / short-term viability assay, CellTiter-Glo 144 h; assay type: cell-based, human; details: Homo sapiens, UM-UC-9, 144 h, read-out: CTGlo 144 h UMUC9.5, G150
Outline: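 Viability read by CellTiter-Glo 2.0 luminescence at day 7 versus DMSO-vehicle wells and a T0 plate measured on day 0. Cells: UM-UC-9 engineered assay-ready stocks, 500 cells/well in high-glucose DMEM with 10% FBS, 37° C, 5% CO2.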

Row | Compound | AC50 [1] [nM] | pIC50 [2]
1 | COc1cc(-c2cc(C(=O)N3CCC(C(=O)NCc4n[nH]c5ccccc45)CC3)n[nH]2)c(Cl)cn1 [Example 201, N-((1H-indazol-3-yl)methyl)-1-(5-(5-chloro-2-methoxypyridin-4-yl)-1H-pyrazole-3-carbonyl)piperidine-4-carboxamide] | 77.5 | 6.77
2 | COc1cc(-c2cc(C(=O)N3CCC(C(=O)NCc4c[nH]c5ncccc45)CC3)n[nH]2)c(Cl)cn1 [Example 202, N-((1H-pyrrolo[2,3-b]pyridin-3-yl)methyl)-1-(5-(5-chloro-2-methoxypyridin-4-yl)-1H-pyrazole-3-carbonyl)piperidine-4-carboxamide] | 136 | 5.80
3 | COc1cc(-c2cc(C(=O)N3CCC(C(=O)NCc4ccc5[nH]c(C)cc5c4)CC3)n[nH]2)c(Cl)cn1 [Example 203, 1-(5-(5-chloro-2-methoxypyridin-4-yl)-1H-pyrazole-3-carbonyl)-N-((2-methyl-1H-indol-5-yl)methyl)piperidine-4-carboxamide] | 77.4 | 7.02
4 | COc1cc(-c2cc(C(=O)N3CCC(C(=O)NCc4ccc5[nH]nc(C)c5c4)CC3)n[nH]2)c(F)cn1 [Example 204, 1-[5-(5-fluoro-2-methoxypyridin-4-yl)-1H-pyrazole-3-carbonyl]-N-[(3-methyl-1H-indazol-5-yl)methyl]piperidine-4-carboxamide] | 20.2 | 7.08
5 | COc1cc(-c2cc(C(=O)N3CCC(C(=O)Nc4cnn(C(C)C)c4)CC3)n[nH]2)c(Cl)cn1 [Example 205, 1-(5-(5-chloro-2-methoxypyridin-4-yl)-1H-pyrazole-3-carbonyl)-N-(1-isopropyl-1H-pyrazol-4-yl)piperidine-4-carboxamide] | 912 | 5.51
6 | COc1cc(-c2cc(C(=O)N3CCC(C(=O)NCc4ccc5c(ccn5C)c4)CC3)n[nH]2)c(Cl)cn1 [Example 206, 1-(5-(5-chloro-2-methoxypyridin-4-yl)-1H-pyrazole-3-carbonyl)-N-((1-methyl-1H-indol-5-yl)methyl)piperidine-4-carboxamide] | 13.8 | 7.06
7 | COc1cc(-c2cc(C(=O)N3CCC(C(=O)NC4COc5ccc(Cl)cc54)CC3)n[nH]2)c(Cl)cn1 (centres unmarked) [Example 208, N-(5-chloro-2,3-dihydrobenzofuran-3-yl)-1-(5-(5-chloro-2-methoxypyridin-4-yl)-1H-pyrazole-3-carbonyl)piperidine-4-carboxamide] | 34.7 | 6.54
8 | COc1cc(-c2cc(C(=O)N3CCC(C(=O)NCc4nccc(C(F)(F)F)n4)CC3)n[nH]2)c(Cl)cn1 [Example 209, 1-(5-(5-chloro-2-methoxypyridin-4-yl)-1H-pyrazole-3-carbonyl)-N-((4-(trifluoromethyl)pyrimidin-2-yl)methyl)piperidine-4-carboxamide] | 319 | 5.63
9 | COc1cc(-c2cc(C(=O)N3CCC(C(=O)NCc4cn5c(C)cccc5n4)CC3)n[nH]2)c(Cl)cn1 [Example 210, 1-(5-(5-chloro-2-methoxypyridin-4-yl)-1H-pyrazole-3-carbonyl)-N-((5-methylimidazo[1,2-a]pyridin-2-yl)methyl)piperidine-4-carboxamide] | 259 | 5.77
10 | COc1cc(-c2cc(C(=O)N3CCC(C(=O)NCc4ncc(C(F)(F)F)cn4)CC3)n[nH]2)c(Cl)cn1 [Example 211, 1-(5-(5-chloro-2-methoxypyridin-4-yl)-1H-pyrazole-3-carbonyl)-N-((5-(trifluoromethyl)pyrimidin-2-yl)methyl)piperidine-4-carboxamide] | 462 | 5.49
11 | COc1cc(-c2cc(C(=O)N3CCC(C(=O)NCc4cc5cc[nH]c5cn4)CC3)n[nH]2)c(Cl)cn1 [Example 212, N-((1H-pyrrolo[2,3-c]pyridin-5-yl)methyl)-1-(5-(5-chloro-2-methoxypyridin-4-yl)-1H-pyrazole-3-carbonyl)piperidine-4-carboxamide] | 79.2 | 6.11
12 | COc1cc(-c2cc(C(=O)N3CCC(C(=O)NCc4cn5cccc(F)c5n4)CC3)n[nH]2)c(Cl)cn1 [Example 214, 1-(5-(5-chloro-2-methoxypyridin-4-yl)-1H-pyrazole-3-carbonyl)-N-((8-fluoroimidazo[1,2-a]pyridin-2-yl)methyl)piperidine-4-carboxamide] | 194 | 5.80
13 | COc1cc(-c2cc(C(=O)N3CCC(C(=O)NCc4ccc5[nH]c(C)nc5c4)CC3)n[nH]2)c(Cl)cn1 [Example 215, 1-(5-(5-chloro-2-methoxypyridin-4-yl)-1H-pyrazole-3-carbonyl)-N-((2-methyl-1H-benzo[d]imidazol-5-yl)methyl)piperidine-4-carboxamide] | 265 | < 5.30
14 | COc1cc(-c2cc(C(=O)N3CCC(C(=O)NCC4(C)OCCCO4)CC3)n[nH]2)c(Cl)cn1 [Example 216, 1-(5-(5-chloro-2-methoxypyridin-4-yl)-1H-pyrazole-3-carbonyl)-N-((2-methyl-1,3-dioxan-2-yl)methyl)piperidine-, 1-carboxamide] | 697 | 5.51
15 | COc1cc(-c2cc(C(=O)N3CCC(C(=O)NCc4cn5cc(C)ccc5n4)CC3)n[nH]2)c(Cl)cn1 [Example 217, 1-(5-(5-chloro-2-methoxypyridin-4-yl)-1H-pyrazole-3-carbonyl)-N-((6-methylimidazo[1,2-a]pyridin-2-yl)methyl)piperidine-4-carboxamide] | 309 | 5.44
16 | COc1cc(-c2cc(C(=O)N3CCC(C(=O)NCc4nn(C)c5ccccc45)CC3)n[nH]2)c(Cl)cn1 [Example 218, 1-(5-(5-chloro-2-methoxypyridin-4-yl)-1H-pyrazole-3-carbonyl)-N-((1-methyl-1H-indazol-3-yl)methyl)piperidine-4-carboxamide] | 13.8 | 6.86
17 | COc1cc(-c2cc(C(=O)N3CCC(C(=O)NCc4cn5cc(Cl)ccc5n4)CC3)n[nH]2)c(Cl)cn1 [Example 219, 1-(5-(5-chloro-2-methoxypyridin-4-yl)-1H-pyrazole-3-carbonyl)-N-((6-chloroimidazo[1,2-a]pyridin-2-yl)methyl)piperidine-4-carboxamide] | 94.5 | 5.79
18 | COc1cc(-c2cc(C(=O)N3CCC(C(=O)NCc4ncoc4C(F)(F)F)CC3)n[nH]2)c(Cl)cn1 [Example 221, 1-(5-(5-chloro-2-methoxypyridin-4-yl)-1H-pyrazole-3-carbonyl)-N-((5-(trifluoromethyl)oxazol-4-yl)methyl)piperidine-4-carboxamide] | 279 | 5.76
19 | COc1cc(-c2cc(C(=O)N3CCC(C(=O)NCc4ccc5c(c4)ncn5C)CC3)n[nH]2)c(Cl)cn1 [Example 223, 1-(5-(5-chloro-2-methoxypyridin-4-yl)-1H-pyrazole-3-carbonyl)-N-((1-methyl-1H-benzo[d]imidazol-5-yl)methyl)piperidine-4-carboxamide] | 628 | < 5.00
20 | COc1cc(-c2cc(C(=O)N3CCC(C(=O)NCc4cc(C(F)F)on4)CC3)n[nH]2)c(Cl)cn1 [Example 225, 1-(5-(5-chloro-2-methoxypyridin-4-yl)-1H-pyrazole-3-carbonyl)-N-((5-(difluoromethyl)isoxazol-3-yl)methyl)piperidine-4-carboxamide] | 327 | 5.76
21 | COc1cc(-c2cc(C(=O)N3CCC(C(=O)NCc4ccc5cc[nH]c5n4)CC3)n[nH]2)c(Cl)cn1 [Example 226, N-((1H-pyrrolo[2,3-b]pyridin-6-yl)methyl)-1-(5-(5-chloro-2-methoxypyridin-4-yl)-1H-pyrazole-3-carbonyl)piperidine-4-carboxamide] | 42.8 | 6.37
22 | COc1cc(-c2cc(C(=O)N3CCC(C(=O)NCc4ccc5oc(=O)n(C)c5c4)CC3)n[nH]2)c(Cl)cn1 [Example 228, 1-(5-(5-chloro-2-methoxypyridin-4-yl)-1H-pyrazole-3-carbonyl)-N-((3-methyl-2-oxo-2,3-dihydrobenzo[d]oxazol-5-yl)methyl)piperidine-4-carboxamide] | 490 | < 5.00
23 | COc1cc(-c2cc(C(=O)N3CCC(C(=O)NCc4ccc5cnn(C)c5c4)CC3)n[nH]2)c(Cl)cn1 [Example 229, 1-(5-(5-chloro-2-methoxypyridin-4-yl)-1H-pyrazole-3-carbonyl)-N-((1-methyl-1H-indazol-6-yl)methyl)piperidine-4-carboxamide] | 70.6 | 6.21
24 | COc1cc(-c2cc(C(=O)N3CCC(C(=O)NCC45CC(CCO4)C5)CC3)n[nH]2)c(Cl)cn1 [Example 230] | 134 | 6.16
25 | COc1cc(-c2cc(C(=O)N3CCC(C(=O)NCc4cnc5c(cnn5C)c4)CC3)n[nH]2)c(Cl)cn1 [Example 232, 1-(5-(5-chloro-2-methoxypyridin-4-yl)-1H-pyrazole-3-carbonyl)-N-((1-methyl-1H-pyrazolo[3,4-b]pyridin-5-yl)methyl)piperidine-4-carboxamide] | 516 | 5.67
